Source: patent US10150787B2, “TC-PTP inhibitors as APC activators for immunotherapy” (THE ROYAL INSTITUTION FOR THE ADVANCEMENT OF LEARNING / …, priority 2014, dated 2018)

Columns and labels:
TC-PTP = TC-PTP (Homo sapiens (Human), UniProt P17706); test: Enzyme Assay for TC-PTP; format: biochemical; details: inhibition of TC-PTP enzymatic activity
Description: 1) Enzyme Assay for TC-PTP
• Assay buffer: 50 mM Bis-Tris (pH=6.3) • 2 mM EDTA • 5 mM N,N′-dimethyl-N,N′-bis(mercaptoacetyl)hydrazine (DMH) • Substrate: 10 mM fluorescein diphosphate (FOP) store at −20° C. (also can use 10 mM DiFMUP) • Enzyme dilution buffer: 50 mM Bis-Tris (pH=6.3) • 2 mM EDTA • 5 mM DMH • 20% (v/v) glycerol • 0.01% Triton X-100
The assay was carried out at room temperature in 96 well plates. The reaction mixture in 170 μl contained 50 mM Bis-Tris (pH=6.3), 2 mM EDTA, 5 mM N,N′-dimethyl-N,N′bis(mercaptoacetyl)hydrazine (DMH) and 10 μM fluorescein diphosphare (FDP) or 6,8-difluoro-4-methylumbelliferyl phosphate (DiFMUP). 10 μl of 10 concentrations (serial dilution) of the test compound (inhibitor) dissolved in DMSO or DMSO alone for control was added to each well and the plate was mixed for 2 min. The reaction was initiated by adding 20 μl of diluted TC-PTP (50 nM for FDP, 0.5 nM for DiFMUP in 50 mM Bis/Tris (pH=6.3), 2 mM EDTA, 5 mM DMH, 20% glycerol and 0.01% Triton X-100. The phosphatase activity was followed by monitoring the appearance of the fluorescent product fluorescein monophosphate (FMP) or 6,8-difluoro-7-hydroxyl-4-coumarin (DiFMU) continuously for 15-30 min, using the Spectromax Gemini fluorescent plate reader ([…]) with excitation of 440 nm and emission at 530 nm (cutoff filter at 525 nm) for FDP and excitation at 360 nm and emission at 450 nm (cutoff filter at 435 nm) for DiFMUP. All the assays were done at least in duplicate. The initial rate of FMP or DiFMU formation is plotted against the concentration of inhibitor and the data was fitted to 4-parameter equation and the inflection point of the fit is the IC50.

monocyte-derived DCs = test: Mouse Dendritic Cell Assay (IL-12 production); format: cell-based; details: for % increase in IL-12 production: 24 h IL-12 production following 6 days of DC incubation and maturation in the presence of 32 μM of test compound vs vehicle-treated cells; for potency in the IL-12 release assay (in words): IL-12 release assay shown in Example 12
Description: Mouse bone marrow cells were flushed from the femur and tibia into RPMI (supplemented with 10% FBS, gentamicin, HEPES, non-essential amino acids) using a syringe equipped with a 23 gauge needle. Clumps were dispersed by gently passing the cell suspension several times through the syringe. Any remaining clumps of cells and debris were removed by passing cell suspension through a 70 μM nylon strainer. The suspension was centrifuged (300×g for 10 mins), the supernatant was discarded and the cells were resuspended in 5 ml of red cell lysis buffer (SIGMA). The cells were counted and mouse monocytes cells (CD11b+) were isolated according to the instructions for positive selection of CD11 b cells (Stemcell technologies). The cells were then resuspended in RPMI media supplemented with 10% FBS, gentamicin, Hepes and non-essential aminoacids (aa) and treated with 40 ng/ml of recombinant mouse GM-CSF and IL-4 (Peprotech). Mouse monocytes were plated at 1×10^6 cells/mL. The cells were incubated for 6 days at 37° C., 5% CO2 in a humidified incubator in the presence of different concentrations of the compounds (0-32 μM). The media was changed every three days by removing half of the media from the plate and replenishing with the same volume of fresh media supplemented with cytokines and the test compounds at the same concentrations.
Immature monocyte-derived DCs may be incubated with a DC maturation cocktail containing the test compounds and incubated for an additional 24-72 hours. There are many DC maturation cocktails identified in the literature, with the “gold standard” consisting of 10 ng/ml TNF-α, 10 ng/ml IL-1β, 1000 units/ml IL-6 and 1 μg/mL PGE2. Alternatively, MPLA (10 μg/mL) and IFNγ (500 U/ml, Peprotech, for clinical research) has also been used. For the data shown in Example 12, the immature monocyte-derived DCs were cultured with LPS (1 μg/mL)) for 48 hours to induce maturation. Test compounds were included in the maturation cocktail at concentrations varying between 1 and 32 μM.
(§1) Characteristics of the mature DCs can be determined by a number of assays including flow cytometry analysis of the surface markers expressed on DCs, the cytokine production profile of activated DCs, antigen presentation assay and in vivo experiments to assess the DC-mediated antitumor response and cancer immunity.

[1] = test system: dendritic cells derived from monocytes taken from human pancreatic cancer patients; test: Human Dendritic Cell Assay (IL-12 release); format: cell-based; details: DCs matured in the presence of the compound vs the same cells matured without it
Description: A sample of human blood was diluted with an equal volume of PBS plus 2% FBS. The diluted blood was layered on top of Lymphoprep (Stemcell technologies) being careful to minimize the mixing of the blood with Lymphoprep. The mixture was centrifuged at 800×g for 20 minutes at room temperature with brake off. If the blood had been stored for more than 2 hours, the centrifugation time was increased to 30 minutes. The upper plasma layer was then removed and discarded without disturbing the plasma-lymphoprep interface. The mononuclear cell layer (PMBC) at the plasma-lymphoprep interface was removed and retained without disturbing the erythrocyte/granulocyte pellet. The mononuclear cells were washed once with media and the CD14+ cells were isolated according to the instructions for the positive selection of CD14+ kit (Stemcell technologies). The resulting CD14+ cells were cultured in PromoCell monocyte attachment media (PromoCell). Cells were plated at 0.5×10^6 cells/cm^2 and incubated for 1 h at 5% CO2 and 37° C. in a humidified incubator. […]
as §1

EG7 lymphoma cells = test: Mouse Syngeneic Tumor Model, treated with inhibitor-activated mature dendritic cells; format: in vivo; details: tumor volume in mice 28 days following a single treatment of mature dendritic cells activated by the compound; Example 5 vs Example 6
Excerpt: A novel dual reporter (GFP & luciferase) MSCV based plasmid was creating by subcloning from two commercially available constructs (addgene 19360: pLenti pgk and addgene 18751: MSCV-IRES-GFP). This construct was used to generate retrovirus for infection of EG7 lymphoma cells (ATCC#CRL-2133). EG7-ova expressing cells are a commonly used model for T cell lymphoma engineered to express the ovalbumin antigen making them useful in immunological and drug discovery applications. These cells were then GFP sorted at the McGill University Life Sciences Complex flow cytometry core (BD FACscalibur) prior to subcutaneous implantation (5×10^5 cells) in syngeneic C57bl6 mice (Harlan). Tumors were allowed to establish in the mice and then were imaged ten days post implantation (Perkin Elmer IVIS100) and luminescence was quantified using IVIS software. Mice were then treated on day 10 post injection with 2×10^6 ex vivo-derived and inhibitor-treated mature dendritic cells (IP injection) (see ex vivo activation of monocyte derived DC with PTP inhibitor). Ovalbulim was added to DC cultures during maturation at a concentration of 2.5 mg/mL. Following maturation, DCs were harvested by gently resuspending with phosphate-buffered saline to dislodge any loosely attached cells. Cells were then spun down and washed twice with phosphate-buffered saline. […]

TC-PTP, sequence (P17706 whole entry, species assumed): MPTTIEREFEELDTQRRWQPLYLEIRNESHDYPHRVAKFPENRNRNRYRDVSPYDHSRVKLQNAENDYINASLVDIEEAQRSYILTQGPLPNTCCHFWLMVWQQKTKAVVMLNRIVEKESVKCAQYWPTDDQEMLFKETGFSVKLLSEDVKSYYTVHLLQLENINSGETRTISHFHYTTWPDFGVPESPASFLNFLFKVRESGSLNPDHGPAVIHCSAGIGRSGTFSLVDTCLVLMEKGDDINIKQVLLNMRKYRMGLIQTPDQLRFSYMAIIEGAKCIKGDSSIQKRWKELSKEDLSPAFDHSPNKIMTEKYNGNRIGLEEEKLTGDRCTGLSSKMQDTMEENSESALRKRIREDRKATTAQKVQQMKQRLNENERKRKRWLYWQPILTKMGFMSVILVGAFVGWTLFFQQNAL

| IC50 (TC-PTP) [nM] | SMILES | % increase in IL-12 production (monocyte-derived DCs) [%] | release of IL-12 [1] | potency in the IL-12 release assay (in words) (monocyte-derived DCs) | efficacy at reducing tumor volume (EG7 lymphoma cells) |
| --- | --- | --- | --- | --- | --- |
| 740 | CCOC(=O)c1cc2cc(Br)c(C(F)(F)P(=O)(O)O)cc2s1 [Ex. 7, ((5-Bromo-2-(Ethoxycarbonyl)Benzo[b]Thiophen-6-yl)Difluoromethyl)Phosphonate] | 171 | greater release of IL-12 |  |  |
| 450 | CCOC(=O)c1cc2cc(C(F)(F)P(=O)(O)O)c(Br)cc2s1 [Ex. 1, ((6-Bromo-2-(Ethoxycarbonyl)Benzo[b]Thiophen-5-yl)Difluoromethyl)Phosphonate] | 161 |  |  |  |
| 260 | O=C(O)c1cc2cc(C(F)(F)P(=O)(O)O)c(Br)cc2s1 [Ex. 2, 6-Bromo-5-(Difluoro(Phosphonato)Methyl)Benzo[b]Thiophene-2-Carboxylate] | 143 |  |  |  |
| 2900 | COC(=O)c1cc2cc(Br)c(C(F)(F)P(=O)(O)O)cc2s1 [Ex. 8, ((5-Bromo-2-(Methoxycarbonyl)Benzo[b]Thiophen-6-yl)Difluoromethyl)Phosphonate] |  |  |  |  |
| 280 | NC(=O)c1cc2cc(C(F)(F)P(=O)(O)O)c(Br)cc2s1 [Ex. 3, ((6-Bromo-2-Carbamoylbenzo[b]Thiophen-5-yl)Difluoromethyl)Phosphonate] | 130 |  |  |  |
| 370 | N#CCc1cc2cc(C(F)(F)P(=O)(O)O)c(Br)cc2s1 [Ex. 6, ((6-Bromo-2-(Cyanomethyl)Benzo[b]Thiophen-5-yl)Difluoromethyl)Phosphonate] | 60 |  | less potent |  |
| 1500 | O=P(O)(O)C(F)(F)c1cc2cc(CO)sc2cc1Br [Ex. 5, ((6-Bromo-2-(Hydroxymethyl)Benzo[b]Thiophen-5-yl)Difluoromethyl)Phosphonate] | 144 |  | potent | greater efficacy at reducing tumor volume |
| 1200 | N#Cc1cc2cc(C(F)(F)P(=O)(O)O)c(Br)cc2s1 [Ex. 4, ((6-Bromo-2-Cyanobenzo[b]Thiophen-5-yl)Difluoromethyl)Phosphonate] | 85 |  |  |  |
| 170 | O=C(O)c1cc2cc(Br)c(C(F)(F)P(=O)(O)O)cc2s1 [Ex. 9, ((5-Bromo-2-(Carboxy)Benzo[b]Thiophen-6-yl)Difluoromethyl)Phosphonate] |  |  |  |  |

| SMILES | IC50 (TC-PTP) [nM] | % increase in IL-12 production (monocyte-derived DCs) [%] | release of IL-12 [1] | potency in the IL-12 release assay (in words) (monocyte-derived DCs) | efficacy at reducing tumor volume (EG7 lymphoma cells) |
| --- | --- | --- | --- | --- | --- |
| N#Cc1ccc2cc(Br)c(C(F)(F)P(=O)(O)O)cc2c1 [Ex. 10, [(3-Bromo-7-Cyano-2-Naphthyl)(Difluoro)Methyl]Phosphonate] | 490 | 42 |  |  |  |
